Measured values taken from US10220025B1, “Self-emulsifying formulation of CARP-1 functional mimetics” (Florida A&M University, priority 2016, dated 2019).

What was measured:
[1] = test system: CSC-enriched populations from xenografts of parental and ADR-resistant MDA-MB-231 TNBC cells; test: MTT viability of tumor-derived CSC-enriched cells; type: cell-based, human; details: dose-dependent; FIG. 15C
Protocol: The CSC-enriched cells were then treated with ADR, CFM-4.16, or a combination of both for noted dose and time. The cell viabilities were determined by MTT-based assay as in FIGS. 3A-3C, and plotted relative to the MTT values for the respective untreated controls. The histogram columns in panels B and C represent means of three and four independent experiments, respectively; bars, S.E. α, αα, β, ββ, ^*,**,#,##p=<0.03 relative to respective cells treated with ADR+CFM-4.16.
The TNBC cells were obtained from tumors derived from parental and drug-resistant cells or from a two-dimensional culture plate with ˜70-80% confluence. The cells were washed twice in 1×PBS and trypsinized following established protocols. […]
It was next clarified whether and to the extent CFM-4.16 was able to interfere with growth of mammospheres derived from parental and drug-resistant TNBC-cells. […] The growing mammosphere cultures were then exposed to CFM-4.16, and the viabilities of untreated and treated cultures were determined by an MTT-based assay. […]

[2] = maximal tolerated dose determination; type: in vivo
Text: J. Biomed. Nanotechnol. 2015; 11:1608-1627]. […] Results was expressed as percentage.

[3] = test system: CARP-1, cyclin B1, cleaved PARP, caspase-8, p38, MKK4, JNK1/2 in TNBC cells; test: Western blot, apoptosis and SAPK signaling; type: cell-based
Protocol: For protein expression analysis, Western blot (WB) experiments were performed according to the standard procedures. The cells were either untreated or treated with various agents either alone or in combinations as indicated. Following treatment durations, the cells were lysed in cell lysis (10×) buffer (#9803; cell signaling) containing 0.1% of protease and phosphatase inhibitor cocktail (Sigma) for 20 min at 4° C. The lysates were centrifuged at 14,000 rpm at 4° C. for 15-20 min to remove debris. Protein concentrations of whole cell lysates were determined using the Protein Assay Kit. Supernatant proteins, 50-100 μg from each sample, were separated by SDS-polyacrylamide gel electrophoresis (SDS-PAGE) and transferred to polyvinylidene difluoride (PVDF) membrane (Bio-rad, Hercules, Calif.) by standard procedures. […] The antibody-bound proteins were visualized by treatment with the chemiluminescence detection reagent according to manufacturer's instructions, followed by exposure to X-ray film (Denville Scientific Inc.). The same membranes were re-probed with the anti-β-actin or anti-α-tubulin antibody, which was used as an internal control for protein loading.

[4] = test system: parental and drug-resistant TNBC and SKBR-3 cells; test: soft-agar clonogenic assay; type: cell-based; details: 10 μM; FIGS. 11D, 12C, 12D, 13C
Protocol: A soft-agar sandwich assay was performed. Cells were sandwiched between 0.6% and 0.3% agarose in DMEM medium containing 5% FBS in a six-well chamber (500 cells/chamber), and treated with buffer (Control), or respective agent for noted time and dose at 37° C. humidified CO2 incubator. The colonies from multiple random fields were counted, compared to control and photographed essentially as described before [Jamal S, Cheryan V T, Muthu M, Munie S, Levi E, Ashour A E, Pass H I, Wali A, Singh M, Rishi A K. CARP-1 functional mimetics are a novel class of small molecule inhibitors of malignant pleural mesothelioma cells. PLos One. 2014; 9:e891; Ashour A E, Jamal S, Cheryan V T, Muthu M, Zoheir K M A, Alafeefy A M, Abd-allah A R, Levi E, Tarca A L, Polin L A, Rishi A K. CARP-1 functional mimetics: A novel class of small molecule inhibitors of medulloblastoma cell growth. PLoS One. 2013; 8:e66733; Zhang L, Levi E, Majumder P, Yu Y, Aboukameel A, Du J, Xu H, Mohammad R M, Hatfield J S, Wali A, Adsay V, Majumdar A P N, Rishi A K. Transactivator of transcription tagged cell cycle and apoptosis regulatory protein-1 peptides suppress growth of human breast cancer cells in vitro and in vivo. Mol Cancer Ther. 2007; 6:1661-1672].

[5] = test system: Adriamycin-resistant (ADR-R) MDA-MB-468 sublines; test: MTT viability assay, ADR-resistant MDA-MB-468 sublines; type: cell-based, human; details: ADR-resistant MDA-MB-468 subline 1; FIG. 5E
Protocol: Human TNBC MDA-MB-468 and MDA-MB-231, and mouse TNBC 4T1 cells were cultured in the chronic presence (>10 months) of Doxorubicin. The parental, wild-type cells were initially treated with 200 nM Doxorubicin for 2-3 weeks, followed by escalation to 400 nM, 1 μM, and 2 μM doses over a period of 3-4 weeks for each dose till resistance developed and the cells became well adapted to growth in […] of Doxorubicin for their routine culture. In the case of Cisplatin however, the human TNBC MDA-MB-468 and MDA-MB-231 were initially cultured in continuous presence of 1 μM Cisplatin for 3-4 weeks, and the dose was escalated to 1.5 μM and 3 μM over periods of 3-4 weeks for each dose till resistance developed and cells became adapted to routine culture in 3 μM dose. Subsequent, routine maintenance of the resistant cells in the presence of the respective drug was continued and multiple, resistant sublines for each of the TNBC cells were isolated and characterized for their growth inhibitory (GI)50 dose of respective therapeutic by the MTT-based viability assays as below.

MDA-MB-231 TNBC cells = details: 470 mg/kg, Qd 1-19, iv, DMSO plus cremophor; not shown
[6] = test system: MDA-MB-468 TNBC cells, wild type; test: MTT viability assay, parental MDA-MB-468; type: cell-based, human
Protocol: In vitro inhibition of cell growth was assessed by MTT (3-[4, 5-dimethyltiazol-2-yl]-2.5-diphenyl tetrazolium bromide) reagent. Cells (5×10^3) were seeded in a 96-well culture plate and subsequently treated with respective agents at different concentrations as mentioned. Control cells were treated with 0.1% DMSO in culture medium. After treatment, the cells were incubated with 1 mg/ml of MTT reagent at 37° C. for 2-4 hours and then MTT was removed and 50 μL of DMSO was added, followed by colorimetric analysis using a multi-label plate reader at 560 nm (Victor3; PerkinElmer, Wellesley, Mass., USA).

[7] = test system: MCF-7, SK-BR-3 and MDA-MB-453 breast cancer cells; test: MTT viability assay, ADR plus CFM-4.16 in non-TNBC breast cancer cells; type: cell-based; details: not shown

## O=C1N(Cc2ccccc2Cl)c2ccccc2C12NN=C(c1cccc(Cl)c1)S2 (stereo not drawn) [CFM-4.16]
[1]
  viabilities of CSC enriched TNBC cells vs untreated: significant loss of viabilities
[2]; daily iv 24-32 mg/kg days 1-16, total dose 482 mg/kg, by day 7 (recovery by day 18)
  weight loss: 1.6 % body weight
[2]; daily iv, total dose 482 mg/kg
  clinical signs: mild ataxia with some tail and leg twitching resolving within 1-2 minutes
  histology: No other histological abnormalities
[3]; FIGS. 5A-5C, 6A-6D
  apoptosis and SAPK markers in parental and drug-resistant TNBC cells: activated pro-apoptotic SAPKs p38α/β and JNK1/2, caspase-8, while causing cleavage of PARP and decline in mitotic cyclin B1 levels
[3]; parental and resistant TNBC cells, FIG. 5C
  activation of pro-apoptotic SAPKs in comparison with CFM-4: rather robust activation of both the pro-apoptotic SAPKs
[4]
  colonies formed in soft agar: significant reduction in size and number of colonies
[5]
  effect of siRNA-mediated depletion of CARP-1 on growth inhibition by the compound: interfered with growth inhibition
MDA-MB-231 TNBC cells
  tumor growth inhibition (T/C): failed to yield a therapeutic T/C values
[6]; 10 μM dose
  inhibition / loss of cell viability: 80-100%
[6]; 20 μM, 24 h, FIG. 3A
  inhibition of viability compared with CFM-4: greater inhibition of viability
[7]
  effect on ADR-mediated growth inhibition: failed to enhance ADR-mediated growth inhibition
